Each structure is given as a SMILES string. Where two headings read alike, the source gives them in different places. Where only a bound is given, the exact number is not on record here.

GI50 data for 24 molecules are collected here from patent publication US10377747B2, “2-arylamino pyridine, pyrimidine or triazine derivatives, preparation method and use thereof” (Wuxi Shuangliang Biotechnology Co., Ltd., priority 2015, dated 2019).

Assay [1] has as its system H1975 (non-small-cell lung cancer cells. EGFR L858K/T790M). Briefly: Tumor cell proliferation and growth inhibition analysis (Cell Titer-Glo, 72 h), H1975. The class given is cell-based. Conditions: Homo sapiens. From the text:
(§1) […] cell proliferation assay is described as follows.
(§2) Tumor cell proliferation and growth inhibition analysis: H1975 (non-small-cell lung cancer cells. EGFR L858K/T790M) and A431 (human epidermal cancer cells, EGFR wild type) cells were commercially available from the ATCC cell bank. […] The growth medium for A431 cells was DMEM (GIBCO, 11995-065), 10% fetal bovine serum. The influence exerted by the compounds on the proliferation activity of tumor cells was detected by Cell Titer-Glo assay. Tumor cells were exposed to the treatment conditions for 72 h, and the cell density used in each experiment for each cell line was adjusted according to the 72 h cell growth curve. 10 concentration gradients and three-fold dilutions (0.5 nM-10 μM) were set for compounds to be tested, and 3 parallel controls were used for each concentration value.
(§3) Trypsin was used for digesting cells in the logrithmic growth phase to prepare cell suspension, which was counted by a Roche counter and appropriately diluted with complete medium to a final cell concentration of 1˜2×10^3 cell/mL. 384-well plates were seeded with cells, and 22.6 μL were seeded for each well. 3 parallels were set. The plates were incubated in an incubator with 5% CO2 at 37° C. overnight. The compounds were dissolved in DMSO to prepare […] mother liquor. […] 2 μL of compound solution was added into 18 μL of culture medium, and fully mixed. Then 2 μL of mixed solution of compound and culture medium was added into 18 μL of culture medium, and fully mixed. 2.4 μL of mixtures were added into a 384-well plates. […] After cultivation for 72 h, 24 μL of Cell Titer-Glo reagent was added. The contents were mixed on an orbital shaker for 2 min to induce cell lysis. The 384-well plates were incubated at room temperature for 10 min to stabilize the […] signal value. Data was read by Infinite® M1000 PRO (TECAN), and calculated with GraphPad Prism version 5.0. GI50 value was obtained by adjustment using a non-linear regression model of dose response curves.
On the technique in general: In ATP-based viability assays light output follows the ATP content of the culture.

Assay [2] concerns A431 (human epidermal cancer cells, EGFR wild type). Briefly: Tumor cell proliferation and growth inhibition analysis (Cell Titer-Glo, 72 h), A431. The format is cell-based. The note with it: A-431, 72 h exposure.
Excerpt: as §1, §2, §3

[3] abbreviates: NCI-H1975, H1975 cells, 72 h exposure, Cell Titer-Glo, read-out: H1975 GI50.

Take `C=CC(=O)Nc1cc(Nc2nccc(-c3cn(C)c4ccccc34)n2)c(OC)cc1N(C)CCN(C)C` [AZD9291, reference compound]: the 50% growth inhibitory concentration (GI50) – broadly, the concentration at which growth is held to half of that of the control – in assay [1] (NCI-H1975, 72 h, read-out: H1975 GI50 (nM)) came out at 2.8 nM.

Take `C=CC(=O)Nc1cc(Nc2nccc(-c3noc4ccccc34)n2)c(OC)cc1N(C)CCN(C)C` [Example 1]: the concentration for 50% growth inhibition (GI50) in assay [1] (setting [3]) is 7.3 nM; in assay [2], around 110 nM.

Take `C=CC(=O)Nc1cc(Nc2nccc(-c3noc4ccccc34)n2)c(OC)cc1N1CCN(C)CC1` [Example 2, N-(5-((4-(benzo[d]isoxazol-3-yl)pyrimidin-2-yl)amino)-4-methoxy-2-(4-methylpiperazin-1-yl)phenyl)acrylamide]: the concentration for 50% growth inhibition (GI50) in assay [1] (setting [3]) stood at 168 nM; in assay [2] it was 728 nM. For `C=CC(=O)Nc1cc(Nc2nccc(-c3noc4ccccc34)n2)c(OC)cc1N1CCC(N(C)C)CC1` [Example 3, N-(5-((4-(benzo[d]isoxazol-3-yl)pyrimidin-2-yl)amino)-2-(4-(dimethylamino)piperidin-1-yl)-4-methoxyphenyl)acrylamide], in that order: 82.4 nM and 1240 nM. Taken in the same sequence, the figures for `C=CC(=O)Nc1cc(Nc2nccc(-c3noc4ccccc34)n2)c(OC)cc1N1CCC[C@H]1CN(C)C` [Example 4, (S)—N-(5-((4-(benzo[d]isoxazol-3-yl)pyrimidin-2-yl)amino)-2-(2-((dimethno)methyl)pyrrolidin-1-yl)-4-methoxyphenyl)acrylamide] were 844 nM and around 63400 nM. For `C=CC(=O)Nc1cc(Nc2nccc(-c3noc4ccccc34)n2)c(OC)cc1N1CC2(CCCN2C)C1` [Example 5, N-(5-((4-(benzo[d]isoxazol-3-yl)pyrimidin-2-yl)amino)-4-methoxy-2-(5-methyl-2,5-diazaspiro[3.4]oct-2-yl)phenyl)acrylamide], in that order: 31.2 nM and 1220 nM. On to `C=CC(=O)Nc1cc(Nc2nccc(-c3noc4ccccc34)n2)c(OC(F)F)cc1N(C)CCN(C)C` [Example 6, N-(5-((4-(benzo[d]isoxazol-3-yl)pyrimidin-2-yl)amino)-4-(difluoromethoxy)-2-((2-(dimethylamino)ethyl)(methyl)amino)phenyl)acrylamide], for which the GI50 turned out to be 4 nM in assay [1] (setting [3]) and 89.1 nM in assay [2].

For the molecule `C=CC(=O)Nc1cc(Nc2nccc(-c3noc4ccccc34)n2)c(OC(F)F)cc1N1CCN(C)CC1` [Example 7, N-(5-((4-(benzo[d]isoxazol-3-yl)pyrimidin-2-yl)amino)-4-(difluoromethoxy)-2-(4-methylpiperazin-1-yl)phenyl)acrylamide], the GI50 in assay [1] (setting [3]) was 49 nM; in assay [2], around 1720 nM. For `C=CC(=O)Nc1cc(Nc2nccc(-c3noc4ccccc34)n2)c(OC(F)F)cc1N1CC(N(C)C)C1` [Example 8, N-(5-((4-(benzo[d]isoxazol-3-yl)pyrimidin-2-yl)amino)-4-(difluoromethoxy)-2-(3-(dimethylamino)azetidin-1-yl)phenyl)acylamide], in that order: 26.1 nM and 299 nM. As for `C=CC(=O)Nc1cc(Nc2nccc(-c3noc4ccccc34)n2)c(OC(F)F)cc1N1CCC(N(C)C)CC1` [Example 9, N-(5-((4-(benzo[d]isoxazol-3-yl)pyrimidin-2-yl)amino)-4-(difluoromethoxy)-2-(4-(dimethylamino)piperidin-1-yl)phenyl)acrylamide], the results for the GI50 in assay [1] (setting [3]) and in assay [2] were 24.2 nM and above 1000 nM, respectively. For `C=CC(=O)Nc1cc(Nc2nccc(-c3noc4ccccc34)n2)c(OC(F)F)cc1N1CCC[C@H]1CN(C)C` [Example 10], in that order: 285 nM and above 1000 nM.

Regarding `C=CC(=O)Nc1cc(Nc2nccc(-c3noc4ccccc34)n2)c(OC(F)F)cc1N1CC2(CCCN2C)C1` [Example 11, N-(5-((4-(benzo[d]isoxazol-3-yl)pyrimidin-2-yl)amino)-4-(difluoromethoxy)-2-(5-methyl-2,5-diazaspiro[3.4]oct-2-yl)phenyl)acrylamide], the GI50 came to 36 nM in assay [1] (setting [3]) and 690 nM in assay [2]. For `C=CC(=O)Nc1cc(Nc2nccc(-c3cn(C)c4cccnc34)n2)c(OC)cc1N(C)CCN(C)C` [Example 12, N-(2-((2-(dimethylamino)ethyl)(methyl)amino)-4-methoxy-5-((4-(1-methyl-1H-pyrrolo[3,2-b]pyridin-3-yl)pyrimidin-2-yl)amino)phenyl)acrylamide], in that order: 6.8 nM and 10200 nM. For `C=CC(=O)Nc1cc(Nc2nccc(-c3cn(C)c4cccnc34)n2)c(OC)cc1N1CCN(C)CC1` [Example 13, N-(4-methoxy-5-((4-(1-methyl-H-pyrrolo[3,2-b]pyridin-3-yl)pyrimidin-2-yl)amino)-2-(4-methylpiperazin-1-yl)phenyl)acrylamide], in that order: 175 nM and 1560 nM. For `C=CC(=O)Nc1cc(Nc2nccc(-c3cn(C)c4cccnc34)n2)c(OC)cc1N1CC(N(C)C)C1` [Example 14, N-(2-(3-(dimethylamino)azetidin-1-yl)-4-methoxy-5-((4-(1-methyl-1H-pyrrolo[3,2-b]pyridin-3-yl)pyrimidin-2-yl)amino)phenyl)acrylamide], in that order: 1460 nM and around 3520 nM. Turning to `C=CC(=O)Nc1cc(Nc2nccc(-c3cn(C)c4cccnc34)n2)c(OC)cc1N1CCC(N(C)C)CC1` [Example 15, N-(2-(4-(dimethylamino)piperidin-1-yl)-4-methoxy-5-((4-(1-methyl-1H-pyrrolo[3,2-b]pyridin-3-yl)pyrimidin-2-yl)amino)phenyl)acrylamide], the GI50 in assay [1] (setting [3]) stood at 77.5 nM; in assay [2] it was 5370 nM. Taken in the same sequence, the figures for `C=CC(=O)Nc1cc(Nc2nccc(-c3cn(C)c4cccnc34)n2)c(OC)cc1N1CCC[C@H]1CN(C)C` [Example 16] were 2880 nM and 2100 nM. Regarding `C=CC(=O)Nc1cc(Nc2nccc(-c3cn(C)c4cccnc34)n2)c(OC)cc1N1CC2(CCCN2C)C1` [Example 17, N-(4-methoxy-5-((4-(1-methyl-1H-pyrrolo[3,2-b]pyridin-3-yl)pyrimidin-2-yl)amino)-2-(5-methyl-2,5-diazaspiro[3.4]oct-2-yl)phenyl)acrylamide], the GI50 turned out to be 39.8 nM in assay [1] (setting [3]) and 1300 nM in assay [2].

Consider `C=CC(=O)Nc1cc(Nc2nccc(-c3cn(C)c4cccnc34)n2)c(OC(F)F)cc1N(C)CCN(C)C` [Example 18], for which the values for the GI50 in assay [1] (setting [3]) and in assay [2] were 6.7 nM and 296 nM, respectively.

For `C=CC(=O)Nc1cc(Nc2nccc(-c3cn(C)c4cccnc34)n2)c(OC(F)F)cc1N1CCN(C)CC1` [Example 19, N-(4-(difluoromethoxy)-5-((4-(1-methyl-1H-pyrrolo[3,2-b]pyridin-3-yl)pyrimidin-2-yl)amino)-2-(4-methylpiperazin-1-yl)phenyl)acrylamide], the results for the 50% growth inhibitory concentration (GI50) in assay [1] (setting [3]) and in assay [2] were 166 nM and 1440 nM, respectively.

As for `C=CC(=O)Nc1cc(Nc2nccc(-c3cn(C)c4cccnc34)n2)c(OC(F)F)cc1N1CC(N(C)C)C1` [Example 20, N-(4-(difluoromethoxy)-2-(3-(dimethylamino)azetidin-1-yl)-5-((4-(1-methyl-1H-pyrrolo[3,2-b]pyridin-3-yl)pyrimidin-2-yl)amino)phenyl)acrylamide], the GI50 in assay [1] (setting [3]) and in assay [2] was above 1000 nM in each case. As for `C=CC(=O)Nc1cc(Nc2nccc(-c3cn(C)c4cccnc34)n2)c(OC(F)F)cc1N1CCC(N(C)C)CC1` [Example 21, N-(4-(difluoromethoxy)-2-(4-(dimethylamino)piperidin-1-yl)-5-((4-(1-methyl-1H-pyrrolo[3,2-b]pyridin-3-yl)pyrimidin-2-yl)amino)phenyl)acrylamide], the GI50 in assay [1] (setting [3]) is 35.9 nM; in assay [2], 319 nM. For `C=CC(=O)Nc1cc(Nc2nccc(-c3cn(C)c4cccnc34)n2)c(OC(F)F)cc1N1CCC[C@H]1CN(C)C` [Example 22, (S)—N-(4-(difluoromethoxy)-2-(2-((dimethylamino)methyl)pyrrolidin-1-yl)-5-((4-(1-methyl-1H-pyrrolo[3,2-b]pyridin-3-yl)pyrimidin-2-yl)amino)phenyl)acrylamide], in that order: 184 nM and 724 nM. Taken in the same sequence, the figures for `C=CC(=O)Nc1cc(Nc2nccc(-c3cn(C)c4cccnc34)n2)c(OC(F)F)cc1N1CC2(CCCN2C)C1` [Example 23, N-(4-(difluoromethoxy)-5-((4-(1-methyl-1H-pyrrolo[3,2-b]pyridin-3-yl)pyrimidin-2-yl)amino)-2-(5-methyl-2,5diazaspiro[3.4]oct-2-yl)phenyl)acryl amide] were 110 nM and 2440 nM.
